Experiments:
B. forsythus = assay: Zone of inhibition of PLGA chips in wells of seeded agar plates; assay type: cell-based; details: for zone of inhibition of bacterial growth: PLGA chips 4 mm×5 mm×0.5 mm in wells, B. forsythus agar, anaerobic 37° C., measured daily
Description: (§1) FIG. 1 is a graph charting the change in size of the zone of growth inhibition of the bacterium P. gingivalis over time. The antibiotic being tested (complexed or non-complexed) is applied to a specific point near or within an area of bacterial growth on an agar plate. The bioactive agent diffuses from the application point and causes lysis of already growing bacteria, or inhibition of growth of bacteria within the zone of diffusion. The diameter of bacterial lysis or growth inhibition is a measure of the potency of the bioactive agent. […] A relatively small zone of lysis or growth inhibition indicates a less biologically active agent.
(§2) Increased biological activity of the antibiotic chlorhexidine was tested by placing chips composed of chorhexidine (C) and clorhexidine digluconate (Cg) complexed with hydroxypropyl-β-cyclodextrin (H) or methylated β-cyclodextrin adjacent to a tooth in agar seeded with P. gingivalis or B. forsythus. The agar plates were incubated to allow growth of the bacterium for 12-15 days and the zone of inhibition of bacterial growth around each chip was measured. An increase in biological activity was measured by an increase in the size of the zone of inhibition around the chip containing the complexed antibiotic compared to the size of the zone around the chip containing the uncomplexed antibiotic.
(§3) More particularly, the method used the following steps:
(§4) Mix: 5 g Trypticase Soy Agar
(§5) 6.5 g Brain Heart Infusion
(§6) Autoclave mixture for 15 minutes at 121 degree Celsius.
(§7) Cool to 50 degrees Celsius for 1 hour.
(§8) Add: 12.5 mL defibrinated sheep blood.
(§9) 300 uL N-acetylmuramic acid (100x).
(§10) Prepared B. forsythus and P. gingivalis culture solution with an optical density of 1˜10^9 cells/mL.
(§11) Added 2 mL of bacteria culture into their respective agar solutions.
(§12) Pour 20 mL agar solution into 150 mm diameter petri dishes.
(§13) Place well former into petri dishes.
(§14) Allow agar to harden by cooling to room temperature for 1 hour.
(§15) Place petri dishes in anaerobic chamber at 37° C. in an atmosphere consisting of 80% nitrogen, 10% hydrogen, and 10% carbon dioxide for 2 days.
(§16) Place 4 mm×5 mm×0.5 mm PLGA chips composed of: Cg, C, C/H, Cg/M, M, and H into preformed wells.
(§17) Masses of each component based on 25 wt % of Cg with respect to a 10 mg chip.
(§18) Add MilliQ water into wells to keep chips hydrated.
(§19) Keep petri dishes in anaerobic chamber during entire experiment.
(§20) Measure zones of inhibition daily using electronic calipers from the center of the well.
(§21) Experiments done in triplicate.

P. gingivalis = assay: as above; assay type: cell-based; details: PLGA chips 4 mm×5 mm×0.5 mm in wells, anaerobic 37° C., measured daily
Description: as §1, §2, §3, §4, §5, §6, §7, §8, §9, §10, §11, §12, §13, §14, §15, §16, §17, §18, §19, §20, §21

Structure (SMILES)	zone of inhibition (B. forsythus; B. forsythus, FIG. 1 right panel)	zone of inhibition of bacterial growth (B. forsythus)	zone of inhibition of bacterial growth (P. gingivalis)
[H]/N=C(\N/C(=N/[H])NCCCCCCNC(=N)NC(=N)Nc1ccc(Cl)cc1)Nc1ccc(Cl)cc1 [C, Chlorhexidine]	about 40 mm	statistically similar	statistically similar
N=C(NCCCCCCNC(=N)NC(=N)Nc1ccc(Cl)cc1)NC(=N)Nc1ccc(Cl)cc1.O=C(O)[C@H](O)[C@@H](O)[C@H](O)[C@H](O)CO.O=C(O)[C@H](O)[C@@H](O)[C@H](O)[C@H](O)CO [Cg, Chlorhexidine Digluconate]		statistically similar	statistically similar
